Target: T1, IDE (Homo sapiens, UniProt P14735)
T1 sequence (P14735 1-1019): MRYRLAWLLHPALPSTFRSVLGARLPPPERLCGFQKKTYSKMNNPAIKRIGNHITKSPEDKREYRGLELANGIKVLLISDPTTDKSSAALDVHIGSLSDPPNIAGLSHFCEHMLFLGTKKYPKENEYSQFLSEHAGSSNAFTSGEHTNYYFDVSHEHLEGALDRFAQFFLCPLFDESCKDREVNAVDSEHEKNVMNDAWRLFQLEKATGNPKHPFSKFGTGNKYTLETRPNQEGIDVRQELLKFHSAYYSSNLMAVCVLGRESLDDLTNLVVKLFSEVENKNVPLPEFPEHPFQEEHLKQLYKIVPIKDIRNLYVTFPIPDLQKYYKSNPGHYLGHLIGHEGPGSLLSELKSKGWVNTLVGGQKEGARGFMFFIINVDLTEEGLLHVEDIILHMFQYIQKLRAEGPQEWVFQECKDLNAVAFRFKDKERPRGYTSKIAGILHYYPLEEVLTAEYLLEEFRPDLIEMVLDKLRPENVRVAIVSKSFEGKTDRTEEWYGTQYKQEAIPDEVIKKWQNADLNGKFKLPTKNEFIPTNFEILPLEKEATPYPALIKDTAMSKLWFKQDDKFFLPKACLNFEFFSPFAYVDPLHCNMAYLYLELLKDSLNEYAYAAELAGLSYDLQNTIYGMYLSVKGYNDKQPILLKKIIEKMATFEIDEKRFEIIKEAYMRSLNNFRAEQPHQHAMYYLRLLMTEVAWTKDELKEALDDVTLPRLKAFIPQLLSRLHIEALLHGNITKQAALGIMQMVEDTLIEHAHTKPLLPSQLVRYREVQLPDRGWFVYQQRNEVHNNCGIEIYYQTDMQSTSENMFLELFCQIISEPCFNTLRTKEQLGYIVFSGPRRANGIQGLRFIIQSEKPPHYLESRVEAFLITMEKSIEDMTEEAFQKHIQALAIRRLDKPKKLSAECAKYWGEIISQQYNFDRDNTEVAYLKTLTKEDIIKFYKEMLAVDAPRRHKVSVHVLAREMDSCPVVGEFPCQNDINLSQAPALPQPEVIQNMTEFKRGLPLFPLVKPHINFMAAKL
Test: QFS assay of Aβ-degrading enzymes: IDE (Example 6)
Type: biochemical
Description: Plate reader-based enzyme assays were performed using a quenched fluorescent substrate (QFS) in a 96-well format using a SpectraMAX M4 Microplate reader (Molecular Devices). The increase in fluorescence following addition of QFS (40 μM) was taken as evidence of enzyme activity. Fluorescence was monitored over 2 h at 37° C. using κEx=320 nm and λEm=405 nm. Assays were conducted in black 96-well plates. Specific enzyme activity was expressed as a rate of substrate cleavage calculated using a standard curve of 7-methoxy-coumarin-4-acetic acid.
In all plate reader-based enzyme assays using QFS, the reaction rate (μmol of substrate cleaved/min) was calculated using linear regression analysis (GraphPad Prism software version 8.01). The reaction rates calculated were used to generate the enzyme kinetic parameters Vmax and Km through non-linear regression analysis (GraphPad Prism software, version 8.01; Michaelis-Menten equation). Where indicated, enzyme activity in the presence of peptide was expressed as a % of the enzyme alone. Data were expressed as mean±SEM and statistical significance was determined using t-tests or one-way ANOVAs followed by Tukey's post-hoc test. P<0.05 was considered as statistically significant. In all assays conducted using 96-well plates, the reaction mixtures in each well were considered an independent experiment.
SEQ ID NO:2 was assessed in a QFS assay against enzymes NEP, ECE1, ECE2, ACE1, ACE2, IDE and MMP-2 using the method in Example 2 and the following procedure. NEP, ACE1, ECE2 (0.05 ng/μL), ACE2, IDE (0.10 ng/μL), and ECE1 (6.4 ng/μL) were incubated with SEQ ID NO:2 (0.9-26 μM) or scrambled control (9 μM) for 1 h at 37° C. Prior to use, MMP2 (0.50 ng/μL) was activated using p-aminophenylmercuric acetate to a final concentration of 100 μM for 1 h at 37° C. Following activation, MMP2 was incubated with SEQ ID NO:2 for 1 h at 37° C. before adding the appropriate QFS.

## H-SLFELGKMIL-NH2 [SEQ ID NO:2, H2N-SLFELGKMIL-NH2]
Peptide 2 μM (FIG. 2c)
  IDE activity compared with respective enzyme alone: did not increase
Peptide 9 μM, significantly less compared with ACE2 and NEP
  IDE activity compared with respective enzyme alone: significantly higher
Peptide 0.9-26 μM
  IDE activity, concentration dependence: increased the activity

Source: patent publication US20240002441A1, “PEPTIDES AND USES THEREOF IN MODULATION OF AMYLOID-BETA PROTEIN DEGRADING PROTEASES” (priority 2020, published 2024)
